Experimental data: PMC9408991, “Antitumor Effects of a New Retinoate of the Fungal Cytotoxin Illudin M in Brain Tumor Models” (International Journal of Molecular Sciences, 2022)
Like-named read-outs stand apart in the source and are kept apart here.

Key:
[1] = tested on: C6 astrocytoma cells; experiment: MTT cell viability assay, C6 astrocytoma; assay type: cell-based; conditions: Rattus norvegicus, read-out: Inhibitory concentration IC50
Protocol: 518A2 (Department of Radiotherapy, Medical University of Vienna, Vienna, Austria) melanoma, KB-V1^Vbl (ACC-149) cervix carcinoma, MCF-7^Topo (ACC-115) breast carcinoma, HT29 (ACC-299) colon carcinoma were cultivated in Dulbecco’s Modified Eagle Medium (DMEM) supplemented with 10% fetal bovine serum and 1% antibiotic-antimycotic at 37 °C, 5% CO2, and 95% humidity. To keep MCF-7^Topo and KB-V1^Vbl cells resistant, the maximum-tolerated doses of topotecan or vinblastine were added to the cell culture medium 24 h after every passage. The human HL60 leukemia cells were obtained from the German National Resource Center for Biological Material (DSMZ), Braunschweig. Neuroectodermal stem cells NE-4C (ATCC No. CRL-2925), primary mouse astrocytes, rat glioma C6 (ATCC No. CCL-107) and human glioma U87 (ATCC No. HTB-14) were used.
(§1) Non-GBM cells (5 × 10^4 cells/mL, 100 µL/well) were grown in 96-well plates for 24 h. Then, they were treated with various concentrations of the test compounds or vehicle (DMSO, or EtOH) for 72 h at 37 °C. After the addition of 12.5 µL of a 0.5% MTT solution in PBS, the cells were incubated for 3 h at 37 °C so that the water-soluble MTT could be converted to formazan crystals. Then, the plates were centrifuged (300× g, 5 min, 4 °C), the medium withdrawn, and the formazan dissolved in 25 µL of DMSO containing 10% sodium dodecylsulfate (SDS) and 0.6% acetic acid for at least 2 h at 37 °C. In the case of the HL60 cells, after 2 h, the precipitate of formazan crystals was redissolved in a 10% solution of SDS in DMSO containing 0.6% acetic acid.
[…] Afterward, 10 µL of a 5 mg/mL MTT solution in PBS was added to the cells for 3 h at 37 °C. Then, the spheres were centrifuged shortly to collect the cells on the bottom of the plate, and the medium was removed by careful pipetting for both adherently grown and floating sphere GBM cultures. Afterward, formazan was dissolved in a mixture (24:1 v:v) of isopropanol and 1 M HCl using 100 µL for adherent cells by shaking the plates for at least 20 min. The absorbance of formazan (λ = 570 nm), and background (λ = 630 nm) was measured with a microplate reader (Tecan Spark, Tecan Deutschland GmbH, Crailsheim, Germany).

[2] = tested on: NE-4C neuroectodermal stem cells; experiment: MTT cell viability assay, NE-4C neuroectodermal stem cells; assay type: cell-based; conditions: Mus musculus, read-out: Inhibitory concentration IC50
Protocol: NE-4C cells derived from the anterior brain vesicles of p53-deficient 9-day-old mouse embryos were maintained in Minimum Essential Medium (MEM; Sigma Aldrich, Taufkirchen, Germany) supplemented with 5% fetal calf serum (FCS; Invitrogen-Gibco, Carlsbad, CA, USA), 4 mM glutamine (Sigma-Aldrich, Taufkirchen, Germany) and 40 ug/mL gentamycin (Chinoin, Budapest, Hungary). For maintenance, subconfluent cultures were regularly split by trypsinization (0.05 w/v% trypsin in PBS) into poly-L-lysine-coated Petri dishes. Primary astrocytes were isolated from whole brains of neonatal (P0-P3) mice, as described earlier. In brief, meninges were removed, and the tissue pieces were subjected to enzymatic dissociation, using 0.05% w/v trypsin and 0.05% w/v DNase for 10 min at room temperature. The cells were plated onto poly-L-lysine coated plastic surfaces and grown in MEM supplemented with 10% fetal calf serum, 4 mM glutamine and 40 ug/mL gentamycin. Primary neuronal cultures were prepared from embryonic (E15–E16) mouse (CD1) forebrains, as described earlier. In brief, cell suspensions were prepared by mechanical dissociation over a nylon mesh with a pore diameter of 40–42 μm. The cells were seeded at 10^5 cells/cm^2 density onto PLL-coated surfaces. The cultures were maintained in MEM supplemented with 5% FCS, 4 mM glutamine, 40 µg/mL gentamicin and 2.5 μg/mL amphotericin B (Sigma). In co-culture experiments, U87 glioma cells were seeded onto established neuronal cultures at DIV3 in a 25,000 cell/cm^2 density.
as §1, with “Then, they were treated with various concentrations of the test compounds or vehicle (DMSO, or EtOH) for 72 h at 37 °C.” left out

[3] = tested on: astrocytes and neurons in primary neuronal cultures; experiment: Immunostaining of GFAP and βIII-tubulin in primary neuronal cultures; assay type: cell-based, mouse; conditions: 1 µM; for effect on GFAP filaments of astrocytes: 48 h exposure
Protocol: Astroglia cells grown on poly-L-lysine-coated glass cover slips were fixed with 4% paraformaldehyde in PBS for 20 min at room temperature and then permeabilized with Triton X-100 (0.1% v/v in PBS; 5 min). Nonspecific antibodies were blocked by incubation with 3% FBS in PBS (room temperature, 1 h). α-GFAP antibody (rabbit, DAKO) was used in a dilution of 1:2000 and was visualized by anti-rabbit IgG Alexa 594 (1:1000). DAPI (4′,6-diamidino-2-phenylindole) was used for nuclei staining. Fluorescence images were captured manually on a Zeiss Axiovert 200 M microscope fitted with 20- to 60-fold zoom and a Zeiss AxioCam MRm digital camera. Further applied antibodies were tubulin III (Sigma T5076), used at a dilution of 1:1000, and Annexin V. Cy3.18 (Sigma A4963).
Figure 4 Immunostaining of primary neurons derived from E14, 5 forebrains treated with 1 µM of 1, 2 or all-trans retinoic acid (RA) plus 1. Blue: nuclei stained with DAPI; green: tubulin stained with βIII-tubulin specific antibody; red: GFAP stained with α-GFAP antibody. Fluorescence microscope Zeiss Axiovert 200 M, 63× objective, 1024 × 1024 res. Scale bar: 50 µm.

[4] = tested on: MZ-54 glioblastoma cells; experiment: Annexin V/PI flow cytometry; assay type: cell-based, human; conditions: MZ-54 cells
Protocol: U251 und Mz54 glioblastoma cells (6 × 10^5 cells/mL, 0.5 mL/well) were seeded in 24-well plates. The next day, the cells were treated with 1, 2 or vehicle (DMSO) for 48 h. Prior to the measurement, the cells were harvested and stained using Annexin-V-APC (BD Biosciences, Heidelberg, Germany) and propidium iodide (PI, 0.05 mg/mL, Sigma-Aldrich, Taufkirchen, Germany). Cells were analyzed with BD Accuri C6 flow-cytometer (BD Biosciences), and data processing was performed using BD Accuri C6 software (BD Biosciences).
Figure 7 (A–D). Annexin V/PI flow cytometry of MZ–54 cells upon treatment with 1 or 2, mean + SEM; Brown–Forsythe ANOVA test with Dunnett’s T3 multiple comparison test (compared with DMSO control); * < 0.05; ** < 0.01; *** < 0.001; **** < 0.0001.

| Compound | IC50 ([1]; C6, 24 h exposure) [nM] | IC50 ([1]; C6, 48 h exposure) [nM] | IC50 ([2]; 24 h exposure) [nM] | IC50 ([2]; 48 h exposure) [nM] | effect on neuronal networks ([3]; 48 h) | effect on GFAP filaments of astrocytes [3] | cell death (Annexin V/PI) [4] |
| --- | --- | --- | --- | --- | --- | --- | --- |
| CC1=C2C(=CC(C)(C)[C@@H]2O)C(=O)[C@](C)(O)C12CC2 [Compound 1, illudin M] | 1000 ± 300 | 400 ± 60 | 400 ± 100 | 50 ± 20 | did not completely disorganize neuronal networks | markedly pitted | dose- and time-dependent increase in cell death |
| CC1=C(/C=C/C(C)=C/C=C/C(C)=C/C(=O)O[C@@H]2C3=C(C)C4(CC4)[C@@](C)(O)C(=O)C3=CC2(C)C)C(C)(C)CCC1 [Compound 2, illudin M retinoate] | 40000 ± 4000 | 12000 ± 1300 | 7000 ± 3200 | 2000 ± 1200 |  | did not cause similar alterations to astrocytes | dose- and time-dependent increase in cell death |
